Results from patent US20250361217A1, “FATTY ACID COMPOUNDS” (University of Pittsburgh - Of the Commonwealth System of …, priority 2022, published 2025).

Molecular target: T1, ACLY (Mus musculus, UniProt Q91V92)
T1 construct: Proteins were extracted from the liver powder (50 mg) with 1 mL of phosphate-buffered saline; from tissue; host or cells: liver of male C57BL/6J mice (HFD, treated in vivo with vehicle or 11U3-2M)
T1 sequence (Q91V92 1-1091): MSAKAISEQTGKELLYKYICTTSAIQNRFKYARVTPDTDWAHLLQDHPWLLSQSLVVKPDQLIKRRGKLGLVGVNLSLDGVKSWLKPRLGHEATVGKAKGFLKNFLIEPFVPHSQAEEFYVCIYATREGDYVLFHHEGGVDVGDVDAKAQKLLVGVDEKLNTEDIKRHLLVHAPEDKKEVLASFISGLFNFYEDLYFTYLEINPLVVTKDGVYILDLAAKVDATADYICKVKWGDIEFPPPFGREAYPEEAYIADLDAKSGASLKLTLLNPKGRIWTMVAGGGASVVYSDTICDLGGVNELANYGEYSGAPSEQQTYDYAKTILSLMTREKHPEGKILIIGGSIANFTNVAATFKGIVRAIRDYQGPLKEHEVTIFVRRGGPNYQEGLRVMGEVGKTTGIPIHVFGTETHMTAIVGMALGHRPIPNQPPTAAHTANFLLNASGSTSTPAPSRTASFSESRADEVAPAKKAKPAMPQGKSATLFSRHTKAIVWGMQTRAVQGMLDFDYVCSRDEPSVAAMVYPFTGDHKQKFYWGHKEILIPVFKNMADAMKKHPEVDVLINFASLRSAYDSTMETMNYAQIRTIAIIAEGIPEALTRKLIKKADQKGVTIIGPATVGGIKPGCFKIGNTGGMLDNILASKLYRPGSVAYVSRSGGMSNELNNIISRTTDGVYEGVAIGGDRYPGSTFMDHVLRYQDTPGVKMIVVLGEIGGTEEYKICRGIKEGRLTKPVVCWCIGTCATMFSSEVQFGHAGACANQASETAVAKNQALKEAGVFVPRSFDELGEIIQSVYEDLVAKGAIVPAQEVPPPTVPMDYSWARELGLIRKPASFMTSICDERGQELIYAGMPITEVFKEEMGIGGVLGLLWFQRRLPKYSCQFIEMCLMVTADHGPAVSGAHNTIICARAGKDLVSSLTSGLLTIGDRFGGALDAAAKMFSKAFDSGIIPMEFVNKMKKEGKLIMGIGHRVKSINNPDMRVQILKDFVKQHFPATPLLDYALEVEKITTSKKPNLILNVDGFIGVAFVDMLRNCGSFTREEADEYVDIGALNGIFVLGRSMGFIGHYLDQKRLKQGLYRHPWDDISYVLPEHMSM
Assay: Thermal shift assay of liver proteins, ACLY
Format: binding, mice
Procedure: The liver samples (50 mg) were homogenized and vortexed in ice-cold RIPA buffer containing phosphatase (Fisher Scientific, #PIA32957) and protease (Fisher Scientific, #PIA32953) inhibitor cocktails. Protein concentration was determined using a […] (Pierce). Protein lysates were mixed with LDS Sample Buffer (1:4) and heated for 2 min at 95° C. The lysates were then loaded and electrophoresed on a 10% Tris-Glycine eXtended (BioRad, Criterion #5671034). The proteins were electrophoretically transferred to a PVDF membrane (BioRad, #1620177), and the transfer was confirmed by staining the membrane with 0.1% Ponceau S solution (Sigma-Aldrich, #6226-79-5). The membrane was then blocked for 90 min at RT with 5% nonfat dry milk (LabScientific) or 5% BSA (MilliporeSigma) in TBS-T (tris buffered saline+0.1% Tween 20 [Thermo Fisher Scientific]). […] Quantitative densitometric analysis was performed using Image Lab software (Bio-Rad).
Thermal Shift Assay Proteins were extracted from the liver powder (50 mg) with 1 mL of phosphate-buffered saline (PBS—Gibco, Paisley, UK) containing phosphatase (Fisher Scientific, #PIA32957) and protease (Fisher Scientific, #PIA32953) inhibitors. […] The Supernatants were transferred to new tubes and analyzed by western blot as described above.

- ACLY thermal stability (full cohorts, HFD+11U3-2M, higher temperature (52, 53.5, 55° C.)): greatly increased
- ACLY thermal stability compared to veh (one mouse per group, 52, 53.5 and 55° C.): higher stability
Compound: CCCc1ccc(CCCCCCCCCC(C)(C)C(=O)O)o1 [11U3-2M, 2,2-Dimethyl-11-(5-propylfuran-2-yl)undecanoic acid]
